Laboratory results taken from PubChem BioAssay AID330 (DTP/NCI, 2004).
Values joined by “and” are separate entries in the source; they are usually repeats but may differ in a detail not shown here. Identical values can stand only once. Toxic doses and inconclusive results are not listed. Rule for the calls: active = survival T/C of 150% or more; inactive = T/C below 125% in these data.

Test system: P388 leukemia ip, CD2F1 mice, survival T/C
Assay: NCI In Vivo Anticancer Drug Screen. Data for tumor model P388 Leukemia (intraperitoneal) in CD2F1 (CDF1) mice
Settings: endpoint: median survival time, higher = longer survival
Procedure, shortened: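 Mice carrying the transplanted tumor received test compound or vehicle. Survival was recorded in each group, and the value is the treated-group measurement divided by that of the vehicle-treated control group.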

[1] = dose: 60.0 mg/kg/injection, schedule: Q01DX005 (ip), vehicle: saline with Tween-80
[2] = dose: 120.0 mg/kg/injection, schedule: Q01DX005 (ip), vehicle: saline with Tween-80
[3] = dose: 240.0 mg/kg/injection, schedule: Q01DX005 (ip), vehicle: saline with Tween-80
[4] = dose: 50.0 mg/kg/injection, schedule: Q01DX009 (ip), vehicle: saline with Tween-80
[5] = dose: 100.0 mg/kg/injection, schedule: Q01DX009 (ip), vehicle: saline with Tween-80
[6] = dose: 200.0 mg/kg/injection, schedule: Q01DX009 (ip), vehicle: saline with Tween-80
[7] = dose: 50.0 mg/kg/injection, schedule: Q01DX009 (ip), vehicle: Klucel (hydroxypropylcellulose) (HPC)
[8] = dose: 100.0 mg/kg/injection, schedule: Q01DX009 (ip), vehicle: Klucel (hydroxypropylcellulose) (HPC)

Measured: T/C

C/C=C/C1OC(O)(C(C)C(O)C(C)C2OC(=O)/C(OC)=C/C(C)=C/C(C)C(O)C(CC)C(O)C(C)C/C(C)=C/C=C/C2OC)CC(OC(=O)/C=C/C(=O)NC2=C(O)CCC2=O)C1C (stereo unspecified)
inactive: dose: 0.75 mg/kg/injection, schedule: Q01DX005 (ip), vehicle: Klucel (hydroxypropylcellulose) (HPC) 118 % of control | dose: 1.5 mg/kg/injection, schedule: Q01DX005 (ip), vehicle: Klucel (hydroxypropylcellulose) (HPC) 110 % of control | dose: 3.0 mg/kg/injection, schedule: Q01DX005 (ip), vehicle: Klucel (hydroxypropylcellulose) (HPC) 108 % of control | dose: 6.0 mg/kg/injection, schedule: Q01DX005 (ip), vehicle: Klucel (hydroxypropylcellulose) (HPC) 110 % of control

CC(=O)Oc1c(C)c(OC(C)=O)c2c(c1C(C)=O)OC1=CC(O)=C(C(C)=O)C(=O)C12C (stereo unspecified)
inactive: dose: 6.25 mg/kg/injection, schedule: Q01DX009 (ip), vehicle: gum acacia 98 % of control and 102 % of control | dose: 12.5 mg/kg/injection, schedule: Q01DX009 (ip), vehicle: gum acacia 104 % of control and 105 % of control | dose: 25.0 mg/kg/injection, schedule: Q01DX009 (ip), vehicle: gum acacia 100 % of control and 102 % of control | dose: 50.0 mg/kg/injection, schedule: Q01DX009 (ip), vehicle: gum acacia 102 % of control and 110 % of control | dose: 100.0 mg/kg/injection, schedule: Q01DX009 (ip), vehicle: gum acacia 113 % of control and 115 % of control | dose: 100.0 mg/kg/injection, schedule: Q04DX002 (ip), vehicle: saline with Tween-80 97 % of control | dose: 200.0 mg/kg/injection, schedule: Q04DX002 (ip), vehicle: saline with Tween-80 102 % of control | dose: 400.0 mg/kg/injection, schedule: Q04DX002 (ip), vehicle: saline with Tween-80 101 % of control

C1CC[N-]CC1.C1CC[N-]CC1.[Co].[N-]=C=S.[N-]=C=S
inactive: dose: 100.0 mg/kg/injection, schedule: Q01DX001 (ip), vehicle: saline with Tween-80 100 % of control

COC(=O)c1cc(OC)nc(OC)n1
inactive: dose: 12.5 mg/kg/injection, schedule: Q01DX009 (ip), vehicle: distilled water + Tween-80 108 % of control | dose: 25.0 mg/kg/injection, schedule: Q01DX009 (ip), vehicle: distilled water + Tween-80 96 % of control | dose: 50.0 mg/kg/injection, schedule: Q01DX009 (ip), vehicle: distilled water + Tween-80 105 % of control | dose: 100.0 mg/kg/injection, schedule: Q01DX009 (ip), vehicle: distilled water + Tween-80 99 % of control

Cc1ccc(/C(=N/NS(=O)(=O)c2ccc(C)cc2)C(C)c2ccccc2)cc1 (stereo unspecified)
inactive: dose: 100.0 mg/kg/injection, schedule: Q01DX001 (ip), vehicle: Klucel (hydroxypropylcellulose) (HPC) 99 % of control | dose: 200.0 mg/kg/injection, schedule: Q01DX001 (ip), vehicle: Klucel (hydroxypropylcellulose) (HPC) 100 % of control | dose: 400.0 mg/kg/injection, schedule: Q01DX001 (ip), vehicle: Klucel (hydroxypropylcellulose) (HPC) 99 % of control

COc1ccc(C(C)c2cc(OC)c(OC)cc2OC)cc1 (stereo unspecified)
inactive: [1] 102 % of control | [2] 102 % of control | [3] 105 % of control

CCCCCCCCCOCC(=O)OC
inactive: [4] 105 % of control | [5] 106 % of control | [6] 101 % of control

CC(/C=N\Nc1ccc(Cl)cc1)=N/NC(=O)C[N+](C)(C)C
inactive: dose: 100.0 mg/kg/injection, schedule: Q04DX002 (ip), vehicle: saline 101 % of control | dose: 200.0 mg/kg/injection, schedule: Q04DX002 (ip), vehicle: saline 100 % of control | dose: 400.0 mg/kg/injection, schedule: Q04DX002 (ip), vehicle: saline 92 % of control

CC(CNC(=O)CCBr)NC(=O)CCBr (stereo unspecified)
inactive: dose: 12.5 mg/kg/injection, schedule: Q01DX009 (ip), vehicle: saline 105 % of control | dose: 25.0 mg/kg/injection, schedule: Q01DX009 (ip), vehicle: saline 116 % of control | dose: 400.0 mg/kg/injection, schedule: Q01DX009 (ip), vehicle: suspension in saline 116 % of control

CC(C)=NNS(=O)(=O)c1ccccc1
inactive: dose: 6.25 mg/kg/injection, schedule: Q01DX009 (ip), vehicle: Klucel (hydroxypropylcellulose) (HPC) 108 % of control | dose: 12.5 mg/kg/injection, schedule: Q01DX009 (ip), vehicle: Klucel (hydroxypropylcellulose) (HPC) 110 % of control | dose: 25.0 mg/kg/injection, schedule: Q01DX009 (ip), vehicle: Klucel (hydroxypropylcellulose) (HPC) 100 % of control | [7] 110 % of control | [8] 108 % of control

CSC(=S)n1nc(-c2cccs2)c(N=Nc2ccc(Cl)cc2)c1C(F)(F)F
inactive: [1] 92 % of control | [2] 100 % of control | [3] 111 % of control

CCCCCCCCCCCCCCCC(=O)N(CCCN(C)C)C1CCC(N(CCCN(C)C)C(=O)CCCCCCCCCCCCCCC)CC1 (stereo unspecified)
inactive: dose: 3.13 mg/kg/injection, schedule: Q01DX009 (ip), vehicle: saline sonified 90 % of control | dose: 6.25 mg/kg/injection, schedule: Q01DX009 (ip), vehicle: saline sonified 90 % of control | dose: 12.5 mg/kg/injection, schedule: Q01DX009 (ip), vehicle: saline sonified 90 % of control

O=c1cccc2c3ccccc3ccn12
inactive: dose: 60.0 mg/kg/injection, schedule: Q01DX005 (ip), vehicle: Klucel (hydroxypropylcellulose) (HPC) 91 % of control | dose: 120.0 mg/kg/injection, schedule: Q01DX005 (ip), vehicle: Klucel (hydroxypropylcellulose) (HPC) 95 % of control

Cc1ccc(S(=O)(=O)N2CCC(N)=N2)cc1
inactive: dose: 50.0 mg/kg/injection, schedule: Q01DX005 (ip), vehicle: Klucel (hydroxypropylcellulose) (HPC) 93 % of control | dose: 100.0 mg/kg/injection, schedule: Q01DX005 (ip), vehicle: Klucel (hydroxypropylcellulose) (HPC) 98 % of control | dose: 200.0 mg/kg/injection, schedule: Q01DX005 (ip), vehicle: Klucel (hydroxypropylcellulose) (HPC) 90 % of control

CC1(C)CCC(C)(C)NC(=S)N1
inactive: dose: 3.13 mg/kg/injection, schedule: Q01DX009 (ip), vehicle: saline with Tween-80 96 % of control | dose: 6.25 mg/kg/injection, schedule: Q01DX009 (ip), vehicle: saline with Tween-80 105 % of control | dose: 12.5 mg/kg/injection, schedule: Q01DX009 (ip), vehicle: saline with Tween-80 96 % of control

CCN(CC)CC(O)c1c(OC)ccc2ccccc12 (stereo unspecified)
inactive: dose: 12.5 mg/kg/injection, schedule: Q01DX005 (ip), vehicle: saline 96 % of control | dose: 25.0 mg/kg/injection, schedule: Q01DX005 (ip), vehicle: saline 96 % of control | dose: 50.0 mg/kg/injection, schedule: Q01DX005 (ip), vehicle: saline 104 % of control and 97 % of control

CCCCCCCC#CC1(CCCC)Sc2ccccc2N1C (stereo unspecified)
inactive: [1] 105 % of control | [2] 110 % of control | [3] 113 % of control

CCCCCCCCN(/N=C/c1c2c(O)c3c(O)c(C)c4c(c3c1O)C(=O)C(C)(O/C=C/C(OC)C(C)C(OC(C)=O)C(C)C(O)C(C)C(O)C(C)/C=C/C=C(C)C(=O)N2)O4)C1OC(COC(=O)c2ccccc2)C(OC(=O)c2ccccc2)C1OC(=O)c1ccccc1 (stereo unspecified)
inactive: [4] 102 % of control | [5] 102 % of control | [6] 107 % of control

CC(=O)OC1C=CC(O)N(C(C)=O)C1SC1C2CC3CC(C2)CC1C3 (stereo unspecified)
inactive: dose: 100.0 mg/kg/injection, schedule: Q04DX003 (ip), vehicle: saline 101 % of control | dose: 200.0 mg/kg/injection, schedule: Q04DX003 (ip), vehicle: saline 101 % of control | dose: 400.0 mg/kg/injection, schedule: Q04DX003 (ip), vehicle: saline 108 % of control

Cc1ccc(NC(=S)N2CCCC2)cc1C
inactive: [7] 100 % of control and 101 % of control | [8] 109 % of control | dose: 200.0 mg/kg/injection, schedule: Q01DX009 (ip), vehicle: Klucel (hydroxypropylcellulose) (HPC) 91 % of control and 98 % of control
